Experimental findings from patent US10111873B1, “Dihydropyrimidinone derivatives” (KING SAUD UNIVERSITY, priority 2018, dated 2018) are described below.

Usually melting point stands for the temperature of the solid-liquid transition. `O=C1NC=C(C(=O)c2ccc(N3CCOCC3)cc2)C(c2ccc(Cl)cc2)N1` (stereo not shown) [DHPM-15, 4-(4-chlorophenyl)-5-[4-(morpholin-4-yl)benzoyl]-3,4-dihydropyrimidin-2(1H)-one] returned a melting point of 288 to 290 °C.

As for `O=C1NC=C(C(=O)c2ccc(N3CCOCC3)cc2)C(c2cccc(O)c2)N1` (stereo not shown) [DHPM-18, 4-(3-hydroxyphenyl)-5-[4-(morpholin-4-yl)benzoyl]-3,4-dihydropyrimidin-2(1H)-one], the melting point was in the range of 120 to 122 °C. For `CCOc1ccc(C2NC(=O)NC=C2C(=O)c2ccc(N3CCOCC3)cc2)cc1` (stereo not shown) [DHPM-20, 4-(4-ethoxyphenyl)-5-[4-(morpholin-4-yl)benzoyl]-3,4-dihydropyrimidin-2(1H)-one] the value was 200 to 202 °C. The result for `O=C1NC=C(C(=O)c2ccc(N3CCNCC3)cc2)C(c2ccc([N+](=O)[O-])cc2)N1` (stereo not shown) [DHPM-3, 4-(4-Nitrophenyl)-5-[4-(piperazin-1-yl)benzoyl]-3,4-dihydropyrimidin-2(1H)-one] reads 175 to 177 °C. For `O=C1NC=C(C(=O)c2ccc(N3CCNCC3)cc2)C(c2ccc(Cl)cc2)N1` (stereo not shown) [DHPM-5, 4-(4-Chlorophenyl)-5-[4-(piperazin-1-yl)benzoyl]-3,4-dihydropyrimidin-2(1H)-one] the value was 160 to 162 °C.

Turning to `O=C1NC=C(C(=O)c2ccc(N3CCNCC3)cc2)C(c2cccc([N+](=O)[O-])c2)N1` (stereo not shown) [DHPM-4, 4-(3-Nitrophenyl)-5-[4-(piperazin-1-yl)benzoyl]-3,4-dihydropyrimidin-2(1H)-one], the melting point was 180 to 182 °C.

In the case of `CCOc1cccc(C2NC(=O)NC=C2C(=O)c2ccc(N3CCNCC3)cc2)c1` (stereo not shown) [DHPM-10, 4-(3-Ethoxyphenyl)-5-[4-(piperazin-1-yl)benzoyl]-3,4-dihydropyrimidin-2(1H)-one], the melting point was 88 to 90 °C. The result for `O=C1NC=C(C(=O)c2ccc(N3CCOCC3)cc2)C(c2ccc([N+](=O)[O-])cc2)N1` (stereo not shown) [DHPM-13, 5-[4-(morpholin-4-yl)benzoyl]-4-(4-nitrophenyl)-3,4-dihydropyrimidin-2(1H)-one] reads 202 to 204 °C.

The molecule `O=C1NC=C(C(=O)c2ccc(N3CCOCC3)cc2)C(c2ccccc2)N1` (stereo not shown) [DHPM-11, 5-[4-(morpholin-4-yl)benzoyl]-4-phenyl-3,4-dihydropyrimidin-2(1H)-one] had a melting point of 258 to 260 °C.

`COc1ccccc1C1NC(=O)NC=C1C(=O)c1ccc(N2CCOCC2)cc1` (stereo not shown) [DHPM-16, 4-(2-methoxyphenyl)-5-[4-(morpholin-4-yl)benzoyl]-3,4-dihydropyrimidin-2(1H)-one] showed a melting point of 178 to 180 °C. For `O=C1NC=C(C(=O)c2ccc(N3CCNCC3)cc2)C(c2cccc(O)c2)N1` (stereo not shown) [DHPM-8, 4-(3-Hydroxyphenyl)-5-[4-(piperazin-1-yl)benzoyl]-3,4-dihydropyrimidin-2(1H)-one] the value was 158 to 160 °C; for `O=C1NC=C(C(=O)c2ccc(N3CCNCC3)cc2)C(c2ccc(O)cc2)N1` (stereo not shown) [DHPM-7, 4-(4-Hydroxyphenyl)-5-[4-(piperazin-1-yl)benzoyl]-3,4-dihydropyrimidin-2(1H)-one], 210 to 212 °C.

In turn, `O=C1NC=C(C(=O)c2ccc(N3CCOCC3)cc2)C(c2cccc([N+](=O)[O-])c2)N1` (stereo not shown) [DHPM-14, 5-[4-(morpholin-4-yl)benzoyl]-4-(3-nitrophenyl)-3,4-dihydropyrimidin-2(1H)-one] registered a melting point of 205 to 207 °C.

Consider `COc1ccccc1C1NC(=O)NC=C1C(=O)c1ccc(N2CCNCC2)cc1` (stereo not shown) [DHPM-6, 4-(2-methoxyphenyl)-5-[4-(piperazin-1-yl)benzoyl]-3,4-dihydropyrimidin-2(1H)-one], for which the melting point fell in the range of 120 to 122 °C. In turn, `O=C1NC=C(C(=O)c2ccc(N3CCNCC3)cc2)C(c2ccccc2[N+](=O)[O-])N1` (stereo not shown) [DHPM-2, 4-(2-Nitrophenyl)-5-[4-(piperazin-1-yl)benzoyl]-3,4-dihydropyrimidin-2(1H)-one] yielded a melting point of 170 to 172 °C. `O=C1NC=C(C(=O)c2ccc(N3CCOCC3)cc2)C(c2ccc(O)cc2)N1` (stereo not shown) [DHPM-17, 4-(4-hydroxyphenyl)-5-[4-(morpholin-4-yl)benzoyl]-3,4-dihydropyrimidin-2(1H)-one] came in with a melting point of 118 to 120 °C. The result for `COc1cccc(C2NC(=O)NC=C2C(=O)c2ccc(N3CCNCC3)cc2)c1` (stereo not shown) [DHPM-9, 4-(3-methoxyphenyl)-5-[4-(piperazin-1-yl)benzoyl]-3,4-dihydropyrimidin-2(1H)-one] reads 118 to 120 °C; that for `O=C1NC=C(C(=O)c2ccc(N3CCOCC3)cc2)C(c2ccccc2[N+](=O)[O-])N1` (stereo not shown) [DHPM-12, 5-[4-(morpholin-4-yl)benzoyl]-4-(2-nitrophenyl)-3,4-dihydropyrimidin-2(1H)-one], 198 to 200 °C.

With `O=C1NC=C(C(=O)c2ccc(N3CCNCC3)cc2)C(c2ccccc2)N1` (stereo not shown) [DHPM-1, 4-phenyl-5-[4-(piperazin-1-yl)benzoyl]-3,4-dihydropyrimidin-2(1H)-one], the melting point is 150 to 152 °C.
